Data: patent US20110034378A1, “Pharmaceutical Combinations Comprising Specified Age Breaker and Further Drugs, I.A. Antihypertensive Drugs, Antidiabetic Drugs Etc” (priority 2008, published 2011)

System: obese Zucker spontaneously hypertensive fatty rats (Ob-ZSF1)
Assay: Effect of compound 27 on diabetic cardiomyopathy and nephropathy in Ob-ZSF1 rats
Type: in vivo, rat
Experimental: Aim: The aim of this study was to study the effect of compound 27 on diabetic cardiomyopathy and nephropathy in obese Zucker spontaneously hypertensive fatty rats (Ob-ZSF1), an animal model of diabetes with progressive cardiac and renal dysfunction.
Method: Male Ob-ZSF1 rats were implanted with telemetry transmitters. At the age of 3 months, rats were divided into two treatment groups, compound 27, 9 mg/kg ip bid and 27 mg/kg ip, bid and a control group to which vehicle was administered until study termination at 34 weeks. 0.5% salt was added in drinking water from […] of treatment for 6 weeks in order to accelerate the vasculopathy. At fixed predetermined time intervals, blood pressure, urine albumin and creatinine were monitored during the study. Terminal measurement of cardiac function was performed in the same animals using Millar Pressure Volume (P-V) System. PV loops were captured to establish cardiac functional parameters and differences in end systolic pressure volume relationship (ESPVR) and end diastolic pressure volume relationship (EDPVR) at different preloads. Heart and kidney were collected from same set of animals at termination for gross and microscopic histopathological examination and for gene expression studies.

[1] = 9 and 27 mg/kg ip bid, terminal Millar P-V measurement, vs vehicle control
[2] = longitudinally over time, compared to control
[3] = persistent severe hyperglycemia

## CS(=O)(=O)NNC(=O)c1ccc[n+](CC(=O)c2cccs2)c1.[Cl-] [compound 27, 1-(2-thien-2′-yl-2-oxoethyl)-3-(methanesulfonyl hydrazinocarbonyl)pyridinium chloride]
27 mg/kg group
  Relative heart wet weight: significantly lesser
27 mg/kg group, compared to the control group
  damage to cardiomyocytes, microscopic examination: less severe damage
9 and 27 mg/kg ip bid, terminal Millar P-V measurement at 34 weeks, vs vehicle control
  cardiac output: significant improvement
[1]
  diastolic relaxation: more efficient
  systolic contractile function: better
  ventricular compliance: improved
9 and 27 mg/kg ip bid, vs vehicle control
  peripheral resistance (afterload): significant reduction
Compared to control
  renal pathology observed microscopically: less severe
Compound 27 treated groups
  Inflammatory cytokine Interleukin-6 (IL-6): reduced significantly
Higher dose group, compared to control
  Renal function: distinct improvement
[2]
  Percent increase from baseline for albumin to creatinine ratio: significantly reduced
  Percent increase from baseline for serial creatinine excretion: significantly reduced
  Percent increase from baseline for urinary albumin excretion: significantly reduced
Marker of cardiac failure, compared to control animals
  Brain natriuretic peptide (BNP) expression: reduced
[3]
  cardiac function (conclusion): clearly preserved
  renal dysfunction (conclusion): reduced the severity
telemetry, compound 27 treated animals
  BP: reduction
